Test results published in patent US20230087844A1, “USE OF N2-QUINCLINE OR ISOQUINOLINE SUBSTITUTED PURINE DERIVATIVES IN CANCER TREATMENT” (SHANGHAI HUAYU BIOTECHNOLOGY CO., LTD., priority 2020, published 2023).

Assays:
KDR (VEGFR-2) = KDR (VEGFR-2) (Homo sapiens, UniProt P35968); test: Inhibition of KDR phosphorylation; format: biochemical
From the text: (§1) FLT3 is a class III receptor tyrosine kinase and plays an important role in hematopoiesis and lymphocyte development. […] Wang et al found over 60% of 82 leukemia cell lines were FLT3 positive (Wang Y et al., (2006) Journal of Experimental Hematology 14(3): 446-449). FLT3-internal tandem duplication (ITD) is the most commonly seen mutation in AML patients, with about 17-34% of AML patients carrying such a mutation (Jia H et al., (2018) Medical Laboratory Science and Clinics 19(5): 39). […] Thus, the compounds of the disclosure with high inhibitory effect on FLT3 function may be good candidates for leukemia treatment.

PDGFR = test: Inhibition of PDGFR phosphorylation; format: biochemical
From the text: as §1

A549 = test: MTT tumor cell proliferation, A549; format: cell-based; conditions: Homo sapiens; A549, Lung cancer, 72 hour
Description: (§2) as an exemplary compound of formula (I), was tested for its inhibitory effect on tumor cell proliferation in a MTT assay.
(§3) Briefly, cells at the log phase were collected, suspended in the cell culture medium at 4*10^4/ml density, and plated in 96-well plates, 90 μl per well. The plates were kept in a 5% CO2 and 37° C. incubator for 2 hours, and then added with 100 μg/ml, 10 μg/ml, 1 μg/ml, 0.1 μg/ml, 0.01 μg/ml or 0.001 μg/ml Compound A, 4 replicates for each cell at each compound concentration. DMSO was used in the positive control group, and another negative group was also set. After 72 hour incubation in the same incubator, 20 μl 5 mg/ml MTT reagent was added to each well. After another 4 hour incubation, each well was added with 100 μl SDS and further incubated for 12 hours. Absorbance at 570 nm was read in a reader, and IC50 was calculated.

H441 = test: MTT tumor cell proliferation, H441; format: cell-based; conditions: Homo sapiens, NCI-H441; H441, Lung cancer, 72 hour
Description: as §2, §3

NCI-H460 = test: MTT tumor cell proliferation, NCI-H460; format: cell-based; conditions: Homo sapiens; NCI-H460, Lung cancer, 72 hour
Description: as §2, §3

BT-474 = test: MTT tumor cell proliferation, BT-474; format: cell-based; conditions: Homo sapiens; BT-474, Breast cancer, 72 hour
Description: as §2, §3

MDA-MB-231 = test: MTT tumor cell proliferation, MDA-MB-231; format: cell-based; conditions: Homo sapiens; MDA-MB-231, Breast cancer, 72 hour
Description: as §2, §3

HL-60 = test: MTT tumor cell proliferation, HL-60; format: cell-based; conditions: Homo sapiens; HL-60, Acute promyelocytic leukemia, 72 hour
Description: as §2, §3

RS 4;11 = test: MTT tumor cell proliferation, RS 4;11; format: cell-based; conditions: Homo sapiens, RS4-11; RS 4;11, Acute lymphocytic leukemia, 72 hour
Description: as §2, §3

leukemia cell lines = test: MTT tumor cell proliferation, leukemia cell lines (summary); format: cell-based; conditions: summary of Table 2
Description: as §2, §3

solid cancer cell lines = test: MTT tumor cell proliferation, solid cancer cell lines (summary); format: cell-based; conditions: summary of Table 2
Description: as §2, §3

MV-4-11 cells = test: MV-4-11 AML xenograft in mice, combination with daunorubicin (Example 8); format: in vivo, BALB-cA nude mice; conditions: 30 mg/kg P.O., D0-10
Description: Mice body weights and tumor sizes were measured twice a week. The tumor volume, T/C and TGI (Tumor growth inhibition=(average tumor volume in vehicle group-average tumor volume in administration group)/average tumor volume in vehicle group ×100%) were calculated. Mice were sacrificed on Day 21. Female BALB-cA nude mice, 6-7 weeks old, purchased from Shanghai Ling-chang Biotech Co., Ltd, were subcutaneously inoculated with MV-4-11 cells (from ATCC). […] Mice body weights and tumor sizes were measured twice a week. The tumor volume, T/C and tumor volume based TGI were calculated as described above. Mice were sacrificed on Day 11.

PI3K δ isoform = PI3K δ isoform (Homo sapiens, UniProt O00329); test: biochemical
Sequence of PI3K δ isoform (O00329 whole entry, canonical isoform): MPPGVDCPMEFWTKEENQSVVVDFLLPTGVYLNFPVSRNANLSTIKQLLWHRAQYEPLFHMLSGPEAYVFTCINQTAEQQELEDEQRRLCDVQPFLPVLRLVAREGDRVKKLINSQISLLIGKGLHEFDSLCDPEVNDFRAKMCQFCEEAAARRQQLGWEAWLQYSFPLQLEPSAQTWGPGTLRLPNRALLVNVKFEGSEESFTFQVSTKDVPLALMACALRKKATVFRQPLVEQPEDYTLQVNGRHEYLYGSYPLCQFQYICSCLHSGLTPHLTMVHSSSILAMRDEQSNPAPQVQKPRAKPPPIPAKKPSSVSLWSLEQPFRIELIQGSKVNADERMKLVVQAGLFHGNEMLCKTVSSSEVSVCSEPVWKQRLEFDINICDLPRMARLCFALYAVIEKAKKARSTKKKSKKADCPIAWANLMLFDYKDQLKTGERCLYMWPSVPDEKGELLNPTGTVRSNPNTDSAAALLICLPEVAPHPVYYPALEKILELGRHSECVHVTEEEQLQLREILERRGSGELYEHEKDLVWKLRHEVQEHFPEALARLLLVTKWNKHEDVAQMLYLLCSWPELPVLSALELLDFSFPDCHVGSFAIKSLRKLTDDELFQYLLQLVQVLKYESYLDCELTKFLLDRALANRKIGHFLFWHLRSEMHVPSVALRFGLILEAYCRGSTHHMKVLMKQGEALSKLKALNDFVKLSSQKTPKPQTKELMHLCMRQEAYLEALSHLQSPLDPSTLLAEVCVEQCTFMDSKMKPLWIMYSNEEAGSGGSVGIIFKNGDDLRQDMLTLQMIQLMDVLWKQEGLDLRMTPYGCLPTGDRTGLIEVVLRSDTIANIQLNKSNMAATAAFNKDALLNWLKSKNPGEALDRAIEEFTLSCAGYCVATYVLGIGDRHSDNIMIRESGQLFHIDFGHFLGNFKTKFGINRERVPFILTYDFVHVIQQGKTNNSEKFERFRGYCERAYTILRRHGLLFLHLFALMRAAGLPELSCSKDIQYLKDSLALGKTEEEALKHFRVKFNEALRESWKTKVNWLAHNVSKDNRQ
Sequence of PI3K δ isoform (P27986 whole entry partner, canonical isoform): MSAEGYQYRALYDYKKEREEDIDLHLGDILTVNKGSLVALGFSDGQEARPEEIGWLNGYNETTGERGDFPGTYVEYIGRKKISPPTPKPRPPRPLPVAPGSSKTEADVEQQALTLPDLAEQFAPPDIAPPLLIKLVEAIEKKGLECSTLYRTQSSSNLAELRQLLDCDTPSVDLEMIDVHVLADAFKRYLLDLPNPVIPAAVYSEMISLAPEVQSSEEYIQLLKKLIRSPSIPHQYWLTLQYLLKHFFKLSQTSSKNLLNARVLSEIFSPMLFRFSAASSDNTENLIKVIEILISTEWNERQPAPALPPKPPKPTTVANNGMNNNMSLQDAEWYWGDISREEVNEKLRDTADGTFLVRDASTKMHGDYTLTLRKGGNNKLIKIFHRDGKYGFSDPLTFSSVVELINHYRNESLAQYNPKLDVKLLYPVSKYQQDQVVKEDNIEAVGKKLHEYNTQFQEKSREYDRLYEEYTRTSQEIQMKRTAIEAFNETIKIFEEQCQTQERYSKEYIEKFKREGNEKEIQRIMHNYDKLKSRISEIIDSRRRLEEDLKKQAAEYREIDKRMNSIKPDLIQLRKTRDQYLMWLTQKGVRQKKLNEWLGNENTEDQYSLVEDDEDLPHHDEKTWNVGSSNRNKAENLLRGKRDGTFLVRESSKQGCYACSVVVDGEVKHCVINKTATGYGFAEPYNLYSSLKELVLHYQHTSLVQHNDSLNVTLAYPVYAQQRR

Sequence of KDR (VEGFR-2) (P35968 20-1356, species assumed): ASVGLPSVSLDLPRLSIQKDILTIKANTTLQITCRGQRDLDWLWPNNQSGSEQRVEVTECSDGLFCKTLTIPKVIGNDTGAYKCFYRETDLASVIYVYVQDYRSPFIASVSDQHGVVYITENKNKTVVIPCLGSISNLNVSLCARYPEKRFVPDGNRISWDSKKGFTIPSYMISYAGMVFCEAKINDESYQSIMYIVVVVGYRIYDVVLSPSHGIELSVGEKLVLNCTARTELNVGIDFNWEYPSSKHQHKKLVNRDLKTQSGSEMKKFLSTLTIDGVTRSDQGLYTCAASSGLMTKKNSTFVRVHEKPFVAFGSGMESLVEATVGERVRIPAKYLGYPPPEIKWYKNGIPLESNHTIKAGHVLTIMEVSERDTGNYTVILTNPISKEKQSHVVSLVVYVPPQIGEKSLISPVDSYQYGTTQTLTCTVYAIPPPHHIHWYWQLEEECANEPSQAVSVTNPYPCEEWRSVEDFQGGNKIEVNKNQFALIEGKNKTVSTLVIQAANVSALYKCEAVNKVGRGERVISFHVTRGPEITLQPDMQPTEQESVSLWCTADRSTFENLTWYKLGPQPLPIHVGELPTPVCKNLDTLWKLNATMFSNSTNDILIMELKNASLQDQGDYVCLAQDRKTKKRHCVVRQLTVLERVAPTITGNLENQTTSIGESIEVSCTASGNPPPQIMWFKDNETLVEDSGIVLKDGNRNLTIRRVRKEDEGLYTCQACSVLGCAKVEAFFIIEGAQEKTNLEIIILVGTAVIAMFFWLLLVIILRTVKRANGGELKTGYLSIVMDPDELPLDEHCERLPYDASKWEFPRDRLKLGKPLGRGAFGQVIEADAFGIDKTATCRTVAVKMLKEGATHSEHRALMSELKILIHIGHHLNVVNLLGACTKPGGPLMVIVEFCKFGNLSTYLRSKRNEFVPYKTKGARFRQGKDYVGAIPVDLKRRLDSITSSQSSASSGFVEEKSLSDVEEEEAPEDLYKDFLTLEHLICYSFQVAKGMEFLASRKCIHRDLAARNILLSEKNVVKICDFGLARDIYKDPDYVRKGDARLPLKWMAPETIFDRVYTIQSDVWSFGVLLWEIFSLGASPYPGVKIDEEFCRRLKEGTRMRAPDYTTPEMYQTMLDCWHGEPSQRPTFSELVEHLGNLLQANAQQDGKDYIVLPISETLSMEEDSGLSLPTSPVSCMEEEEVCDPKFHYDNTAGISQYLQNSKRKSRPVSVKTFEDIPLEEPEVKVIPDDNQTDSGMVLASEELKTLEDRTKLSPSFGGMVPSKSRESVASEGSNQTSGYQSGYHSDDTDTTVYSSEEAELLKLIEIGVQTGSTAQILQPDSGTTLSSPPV

c1cnc2ccc(Nc3nc(NC4CC4)c4nc[nH]c4n3)cc2c1 [Compound A]
EC50 (KDR (VEGFR-2)): ~1000 nM
EC50 (PDGFR): ~1000 nM
IC50 (A549): 2300 ± 800 nM
IC50 (H441): 15900 ± 9500 nM
IC50 (NCI-H460): 4000 ± 400 nM
IC50 (BT-474): 4400 ± 400 nM
IC50 (MDA-MB-231): 3500 ± 100 nM
IC50 (HL-60): 500 ± 300 nM
IC50 (RS 4;11): 400 ± 100 nM
IC50 (leukemia cell lines): ≤ 1600 nM
IC50 (solid cancer cell lines): ≥ 2300 nM
T/C (MV-4-11 cells; D11): 71%
TGI (MV-4-11 cells; D11): 29%
Tumor volume D0 (MV-4-11 cells; in mm³): 150.9
Tumor volume D11 (MV-4-11 cells; in mm³): 2076.3
EC50 (PI3K δ isoform): ~90 nM
